Molecules are shown by their SMILES.

Experimental findings from patent publication US20080193402A1, “Depilatory Compositions” (priority 2005, published 2008) are described below.

This data set in a line: 2AET storage stability at 40° C. in different packages. In kind it is physicochemical. The method, then:
The single phase depilatory was then packaged into two separate containers. The first was an aluminum can with a bag-on-valve system, while the second was a standard high density polyethylene bottle.
The 2AET levels were evaluated at initial, 1 month and 3 months after storage at 40° C. to determine stability profiles.

On to `NCCS` [Example 2AET, 2-aminoethanethiol], for which the 2AET level by setting is: (Example 13 single phase depilatory in HDPE (full), 1 month/40° C.) 6.7%; (Example 13 single phase depilatory in HDPE (full), 3 months/40° C.) 6.6%; (Example 13 single phase depilatory in HDPE (full), initial) 7.2%; (Example 13 single phase depilatory in HDPE (half), 1 month/40° C.) 6.3%; (Example 13 single phase depilatory in HDPE (half), 3 months/40° C.) 5.9%; (Example 13 single phase depilatory in HDPE (half), initial) 7.1%. Moreover, the 2AET level is, setting by setting: (Example 13 single phase depilatory in aluminum can with bag-on-valve, 1 month/40° C.) 7.3%; (Example 13 single phase depilatory in aluminum can with bag-on-valve, 3 months/40° C.) 7.3%; (Example 13 single phase depilatory in aluminum can with bag-on-valve, initial) 7.3%.
